The record followed here is EP0723972A1, “Lactylamines and their pharmaceutical application” (STEPAN EUROPE, priority 1995, dated 1996).

Format in all cases: cell-based
In one series the test system is Aspergillus fumigatus. In words: Anti-Aspergillus fumigatus in vitro growth inhibition (glucose consumption). The settings on record: for IC50: Aspergillus fumigatus. The source says:
Différents composés B1 ont été testés du point de vue de leurs propriétés anti-Aspergillus fumigatus, dans un essai in vitro standardisé, complètement décrit dans la publication (7) dont le contenu est incorporé, par référence, à la présente description.
Dans cet essai, la croissance dudit champignon est indiquée par la consommation de glucose qui constitue la seule source de carbone métabolisable, et on mesure la concentration en composé testé nécessaire pour inhiber 50% (IC50), et 90% (IC90) de la croissance du champignon. Deux composés témoin sont utilisés, l'Itraconazole et l'Amphotéricine B, dont les propriétés anti-Aspergillus fumigatus sont connues et qui servent dans cet essai de référence.

The next series relates to VIH (souche BRU). As to the kind of experiment: Anti-HIV in vitro test: syncytia formation in HIV-infected CEM cells. The conditions noted are these: 96 h. The text has this:
Les composés A (A1, A2) et B (B1, B2) sont testés du point de vue de leurs propriétés anti-VIH selon un protocole d'essai in vitro standardisé et complètement décrit dans les publications (5, 6), dont le contenu est incorporé par référence, à la présente description.
La multiplication du VIH (souche BRU) dans les cellules CEM est évaluée par le nombre de syncytia formés après 4 jours d'infection, résultant de l'interaction entre la glycoprotéine gp120 exprimée par les cellules (BRU) infectées par le VIH, et les lymphocytes T4 (CEM).
Les composés testés sont ajoutés après l'adsorption du virus dans le milieu de culture aux concentrations finales 10^-3M, 10^-4M, 10^-5M, 10^-6M et 10^-7M.
Les résultats sont exprimés par la concentration la plus faible de composés qui diminue la formation des syncytia d'au moins 50%. Cette concentration est appelée EC50. Elle doit être la plus basse possible.

The next series has as its system CEM non infectées. As to the kind of experiment: Toxicity on uninfected CEM cells, colorimetric formazan (MTT) reduction. The conditions noted are these: lowest concentration inhibiting formazan formation by at least 50%, four days of incubation, macrophage CEM-SS. How it is done: On détermine aussi la toxicité des composés testés. L'effet toxique sur les CEM non infectées est apprécié par une réaction colorimétrique basée sur la capacité des cellules vivantes à réduire le bromure de 3-(4,5-diméthylthiazol-2-yl)-2,5-diphényltétrazolium en formazan après quatre jours d'incubation en présence de différentes concentrations des composés. Les résultats sont exprimés par la concentration la plus faible de composés qui provoque une inhibition d'au moins 50% de la formation de formazan. Cette concentration est appelée CI50.

Where [1] appears, read: anti-VIH sur macrophage CEM-SS, lowest concentration reducing syncytia formation by at least 50%, 4 days of infection, read-out: EC50.

Several values for one entry are separate records, joined by “and”; a condition that tells them apart may be missing. Identical values can stand only once. Like-named read-outs stand apart in the source and are kept apart here. Where only a bound is given, the exact number is not on record here.

On to `C[C@@H]1[C@H](O)[C@@H](C)/C=C/C=C/C=C/C=C/C=C/C=C/C=C/[C@H](O[C@@H]2O[C@H](C)[C@@H](O)[C@H](N)[C@@H]2O)C[C@@H]2O[C@](O)(C[C@@H](O)C[C@@H](O)[C@H](O)CC[C@@H](O)C[C@@H](O)CC(=O)O[C@H]1C)C[C@H](O)[C@H]2C(=O)O` [Amphotéricine B, reference compound], for which the IC50 in the series with Aspergillus fumigatus (read-out: CI50) was 0.02 µg/mL and 20 nM.
Turning to `CCCCCCCCCCCCCC(=O)N(CCCCCCCCC)C[C@H](O)[C@@H](O)[C@H](O[C@@H]1O[C@H](CO)[C@H](O)[C@H](O)[C@H]1O)[C@H](O)CO` [B1(9, 13)], the IC50 in the series on Aspergillus fumigatus (read-out: CI50) is 5 µg/mL and 7.4 µM.
Consider `CCCCCCCCCCCCCCCC(=O)N(CCCCCCCCC)C[C@H](O)[C@@H](O)[C@H](O[C@@H]1O[C@H](CO)[C@H](O)[C@H](O)[C@H]1O)[C@H](O)CO` [B1(9, 15)], for which the EC50 in the series with VIH (souche BRU) (setting [1]) was determined as 10 µM. In the series on CEM non infectées, the CI50 is listed as more than 100 µM. For the same molecule, the IC50 in the series with Aspergillus fumigatus (read-out: CI50) was 1.6 µg/mL and 2.3 µM.
With `CCCCCCCCCCCCCCCCCC(=O)N(CCCCCCCCC)C[C@H](O)[C@@H](O)[C@H](O[C@@H]1O[C@H](CO)[C@H](O)[C@H](O)[C@H]1O)[C@H](O)CO` [B1(9, 17)], the IC50 with Aspergillus fumigatus (read-out: CI50) is 0.5 µg/mL and 600 nM. Moreover, the “activité anti-Aspergillus fumigatus” value in the series on Aspergillus fumigatus (result in words, compared with the reference compound) is “proche de celle de l'Amphotéricine B”.
`CCC(C)n1ncn(-c2ccc(N3CCN(c4ccc(OCC5COC(Cn6cncn6)(c6ccc(Cl)cc6Cl)O5)cc4)CC3)cc2)c1=O` (centres unmarked) [Itraconazole, reference compound]: the IC50 with Aspergillus fumigatus (concentration inhibiting 50% of fungal growth, read-out: CI50 (the source's name)) was 0.003 µg/mL and 4 nM.
Take `CCCCCCCCCCCCNC[C@H](O)[C@@H](O)[C@H](O[C@@H]1O[C@H](CO)[C@H](O)[C@H](O)[C@H]1O)[C@H](O)CO` [N-dodécylaminodésoxyl-1-lactitol]: in the series with VIH (souche BRU) (CEM-SS), the EC50 was 1000 µM. In addition, in the series with CEM non infectées, the CI50 was found to be 7000 µM. For the same molecule, the IC50 in the series with Aspergillus fumigatus (read-out: CI50) was > 100 µg/mL and 195 µM.
In the series with VIH (souche BRU) (CEM-SS), `CCCCCCCCCCCCCCCCNC[C@H](O)[C@@H](O)[C@H](O[C@@H]1O[C@H](CO)[C@H](O)[C@H](O)[C@H]1O)[C@H](O)CO` [N-hexadécylaminodésoxy-l-lactitol] had an EC50 of 50 µM. For the same molecule, the CI50 in the series with CEM non infectées is given as 70 µM. For the same molecule, the IC50 in the series with Aspergillus fumigatus (read-out: CI50) was 2.2 µg/mL and 3.8 µM.
Consider `CCCCCCCCCNC[C@H](O)[C@@H](O)[C@H](O[C@@H]1O[C@H](CO)[C@H](O)[C@H](O)[C@H]1O)[C@H](O)CO` [N-nonylaminodésoxy-1-lactitol], for which, in the series on VIH (souche BRU) (setting [1]), the EC50 worked out at 1 µM. The molecule also gave a CI50 in the series on CEM non infectées of 40 µM. Moreover, in the series on Aspergillus fumigatus (read-out: CI50), the IC50 is > 100 µg/mL and > 220 µM.
In the case of `CCCCCCCCCCCCCCNC[C@H](O)[C@@H](O)[C@H](O[C@@H]1O[C@H](CO)[C@H](O)[C@H](O)[C@H]1O)[C@H](O)CO` [N-tétradécylaminodésoxy-l-lactitol], the EC50 in the series on VIH (souche BRU) (CEM-SS) was found to be 50 µM. The CI50 in the series with CEM non infectées is 70 µM. In addition, in the series with Aspergillus fumigatus (read-out: CI50), the IC50 was 15.2 µg/mL and 28.1 µM.
